Literature values as cited in US20160367500A1 (FERTILIFY INC., priority 2013, published 2016).
Read-outs that look alike come from different tables or passages of the source. Values belong to the molecule of their own block, whether it stands above or below them.

Key:
[1] = tested on: ROS-mediated embryo-toxicity in cultures; settings: vitamin C and vitamin E together, ex-vivo murine models
[2] = not given; remark: listed apart in the source
[3] = tested on: anti-Müllerian hormone (AMH); settings: women with sufficient levels of vitamin D
[4] = tested on: methylglyoxal-treated oocytes
[5] = tested on: mouse hepatocyte mitochondria
[6] = fortification of food with folic acid
[7] = diet deficient in vitamin D versus vitamin D sufficient diet (Halloran 1980)

Molecule: vitamin E
IVF [1]: improved IVF | rate of embryo development [1]: increased the rate of embryo development | tolerable upper limit of intake (Health Canada Nutrition Tables (2013)): 1000 mg per day

Molecule: COC1=C(OC)C(=O)C(C/C=C(\C)CC/C=C(\C)CC/C=C(\C)CC/C=C(\C)CC/C=C(\C)CC/C=C(\C)CC/C=C(\C)CC/C=C(\C)CC/C=C(\C)CCC=C(C)C)=C(C)C1=O [Coenzyme Q10, coenzyme Q10]
safely tolerable dose (in vivo): up to 1200 mg per day | litter size (aged female mice; 52-week-old mice, versus control groups without coenzyme Q10): significantly larger litter sizes | number of ovulated eggs after stimulation (aged female mice; aged female mice): significantly increases the number of ovulated eggs

Molecule: vitamin D
pregnancy rate per IVF cycle ([2]; women whose vitamin D levels were insufficient or deficient): 34.7% | pregnancy rate per IVF cycle ([2]; women with sufficient levels of vitamin D): 52.5% | reduction of fertility (female rats; [7]): 75% | reduction of litter size (female rats; [7]): 30% | litter size (female rats; diet lacking vitamin D before mating versus diet containing vitamin D (Hickie 1983)): significantly smaller litters | AMH levels [3]: increased levels of anti-Müllerian hormone (AMH)

Molecule: Oc1ccc(C=Cc2cc(O)cc(O)c2)cc1 [Resveratrol, resveratrol]
adverse effects caused by methylglyoxal (inhibition of oocyte maturation, disruption of spindle assembly) [4]: can alleviate the adverse effects caused by methylglyoxal | excessive ROS production, aberrant mitochondrial distribution, high level lipid peroxidation ([4]; methylglyoxal-induced cytotoxic changes): can block these cytotoxic changes | DNA double strands breaks ([4]; methylglyoxal-treated oocytes): decreased

upper limit (in words) (adults over the age of 18): (no known upper limit)
Molecule: O=C(O)c1cc(C(=O)O)c2c(n1)C(=O)C(=O)c1cc(C(=O)O)[nH]c1-2 [PQQ, pyrroloquinoline quinone]
mitochondrial biogenesis ([5]; aging cells): promotes the spontaneous generation of new mitochondria within aging cells | protection from oxidative stress ([5]; mouse hepatocyte mitochondria): protects mouse hepatocyte mitochondria from oxidative stress

Molecule: Nc1nc2ncc(CNc3ccc(C(=O)N[C@@H](CCC(=O)O)C(=O)O)cc3)nc2c(=O)[nH]1 [Folic Acid, folic acid]
rate of neural-tube defects [6]: significant reduction in the rate of neural-tube defects
